According to ChEMBL document CHEMBL3102851, “Trinorditerpenes from the roots of Flueggea virosa” (Bioorg Med Chem Lett, 2014):
pEC50, pIC50: −log10 of the molar value.

Legend:
[1] = Antiinflammatory activity in human neutrophils assessed as FMLP/cytochalasin B-induced elastase release after 5 mins by spectrophotometry; format: functional, cell-based; conditions: Neutrophil
[2] = Cytotoxicity against human Huh7.5 cells; format: cell-based; conditions: Huh-7
Hepatitis C virus = assay: Antiviral activity against HCV infected in human Huh7.5 cells; format: functional, organism-based, Hepacivirus hominis; conditions: Huh-7
[3] = Antiinflammatory activity in human neutrophils assessed as FMLP/cytochalasin B-induced superoxide anion generation after 5 mins by spectrophotometry; format: functional, cell-based; conditions: Neutrophil

Row | pIC50 [1] | pEC50 (Hepatitis C virus) | pIC50 [3] | SMILES | pIC50 [2]
1 | 5.37 | 4.89 | 5.36 | Cc1cc2ccc3c(c2cc1O)CCC(=O)C3(C)C | 4.57
2 | 5.02 | 4.63 | < 4.52 | COc1cc2c3c(ccc2cc1C)C(C)(C)C(O)CC3 (racemic) | 4.19
3 | – | 5.03 | – | C=CCc1ccc(O)c(-c2ccc(O)c(CC=C)c2)c1 [HONOKIOL] | 4.23
4 | 5.70 | – | 5.49 | CNC(=O)c1cc(Oc2ccc(NC(=O)Nc3ccc(Cl)c(C(F)(F)F)c3)cc2)ccn1 [SORAFENIB] | –
